The text below walks through data of paper PMC11873900, “Insights into the Activation Mechanism of HCA1, HCA2, and HCA3” (Journal of Medicinal Chemistry, 2025).

Assay [1] has as its system HCA1. To be noted: cited from earlier work.
Assay [2] has as its target T1, HCA1 (Homo sapiens, UniProt Q9BXC0).
T1 construct: expressed in transfected cells; host or cells: HEK293
The assay can be described thus: cAMP inhibition (CRE-luc reporter) assay, HCA1 wild type. The assay is classed as cell-based. To be noted: HEK293 cells, mean ± SEM (Table S2a,b). As for the experimental part: (§1) Human embryonic kidney 293 (HEK293) cells were maintained in Dulbecco’s modified Eagle’s medium (DMEM) containing 10% fetal bovine serum (FBS) and antibiotics (100 U/mL penicillin and 100 μg/mL streptomycin) at 37 °C, 5% CO2. Cells (1 × 10^6 per well) were seeded on 6-well plates for 15 h and transiently transfected with a transfection cocktail containing 2 μg of plasmid DNA (1 μg of the target plasmid and 1 μg of pCRE-luc) and 6 μL of X-tremeGENE HP DNA transfection reagents dissolved in 200 μL of phenol red-free OPTI MEM. After 24 h incubation, the medium containing the transfection cocktail was replaced with a serum-supplemented normal culture medium, and cells were plated at a density of approximately 40000 cells/well in white opaque 96-well microplates for an additional 24 h. After 24 h, fresh medium with varied concentrations of ligands was added to the wells, and cells were incubated for 30 min at 37 °C, 5% CO2. Then, forsklin with a final concentration of 5 μM was added to each well for 6 h. Then, all of the medium was removed and 40 μL of Bright-Glo Luciferase Assay System reagent (Promega, U.K.) was added to each well. Luminance was measured in a luminometer (TECAN Spark, CH) after 10 min incubation.

The target of assay [3] is T2, HCA1 R240^6.55A (Homo sapiens, UniProt Q9BXC0, R240A).
T2 construct: expressed in transfected cells; host or cells: HEK293
The assay can be described thus: cAMP reporter assay, HCA1 mutant R240A. It counts as cell-based. Particulars: HCA1 R240A versus wild type (Figure 2f). As for the experimental part: as §1

Assay [4] has as its target T3, HCA1 E166^45.51I (Homo sapiens, UniProt Q9BXC0, E166I).
T3 construct: expressed in transfected cells; host or cells: HEK293
Put plainly: cAMP reporter assay, HCA1 mutant E166I. The assay is classed as cell-based. To be noted: HCA1 E166I (Figure 2f). As for the experimental part:
as §1

Assay [5] deals with T4, HCA1 E166^45.51A (Homo sapiens, UniProt Q9BXC0, E166A).
T4 construct: expressed in transfected cells; host or cells: HEK293
Put plainly: cAMP reporter assay, HCA1 mutant E166A. It counts as cell-based. Particulars: HCA1 E166A (Figure 2f). Here is the method:
as §1

Assay [6] addresses T5, HCA1 H261^7.36F (Homo sapiens, UniProt Q9BXC0, H261F).
T5 construct: expressed in transfected cells; host or cells: HEK293
Put plainly: cAMP reporter assay, HCA1 mutant H261F. The assay is classed as cell-based. Particulars: HCA1 H261F (Figure 2f). Here is the method: as §1

The target of assay [7] is T6, HCA1 R99A (Homo sapiens, UniProt Q9BXC0, R99A).
T6 construct: expressed in transfected cells; host or cells: HEK293
Put plainly: cAMP reporter assay, HCA1 mutant R99A. The assay is classed as cell-based. Particulars: HCA1 R99A (Figure 2f). As for the experimental part: as §1

For assay [8], the target named is T7, HCA2(1–129)/HCA3(130-) (Homo sapiens, UniProt Q8TDS4, G173T/I156V/L176V/M167L/M317I/M346I/P168L/Q187R/R142W/R253H/S178I).
T7 construct: swap the amino acid segments 1–129 between HCA2 and HCA3; creating chimeras HCA2(1–129)/HCA3(130-) and HCA3(1–129)/HCA2(130-); expressed in transfected cells; host or cells: HEK293
The assay can be described thus: IP1 accumulation assay, chimera HCA2(1–129)/HCA3(130-). The assay is classed as cell-based. Particulars: IP1 accumulation (Figure 3d). Here is the method: The HCA1/HCA2/HCA3 plasmid was transfected into the HEK293 cells (Invitrogen) and cultured for 2 days. The HEK293 cells expressing HCA1/HCA2/HCA3 were washed by PBS and resuspended by the stimulation buffer from a Cisbio Bioassays’ IP-One Gq kit. […] After incubation at 37 °C for 90 min, 3μl Tb Cryptate Antibody and 3μl IP1 d2 Reagent were added to 384-well plates per well. […] The data was analyzed by GraphPad Prism 8.4.0 (GraphPad Software).

The target in assay [9] is T8, HCA3(1–129)/HCA2(130-) (Homo sapiens, UniProt P49019, H253R/I178S/I317M/I346M/L167M/L168P/R187Q/T173G/V156I/V176L/W142R).
T8 construct: swap the amino acid segments 1–129 between HCA2 and HCA3; creating chimeras HCA2(1–129)/HCA3(130-) and HCA3(1–129)/HCA2(130-); expressed in transfected cells; host or cells: HEK293
The assay can be described thus: IP1 accumulation assay, chimera HCA3(1–129)/HCA2(130-). The assay is classed as cell-based. To be noted: IP1 accumulation (Figure 3d).

Assay [10] has as its target T9, HCA3(1–129)/HCA2(130-) S178^45.51I (Homo sapiens, UniProt Q8TDS4, L107F/L83V/M103V/N86Y/S178I/V27A/W91S).
T9 construct: swap the amino acid segments 1–129 between HCA2 and HCA3; creating chimeras HCA2(1–129)/HCA3(130-) and HCA3(1–129)/HCA2(130-); expressed in transfected cells; host or cells: HEK293
Put plainly: IP1 accumulation assay, chimera HCA3(1–129)/HCA2(130-) with S178I. It counts as cell-based. To be noted: HCA3(1–129)/HCA2(130-) with mutation S178I (Figure 3d).

Assay [11] concerns the target T10, HCA2(1–129)/HCA3(130-) N86^2.63Y W91^ECL1S (Homo sapiens, UniProt Q8TDS4, G173T/I156V/L176V/M167L/M317I/M346I/N86Y/P168L/Q187R/R142W/R253H/S178I/W91S).
T10 construct: swap the amino acid segments 1–129 between HCA2 and HCA3; creating chimeras HCA2(1–129)/HCA3(130-) and HCA3(1–129)/HCA2(130-); expressed in transfected cells; host or cells: HEK293
The assay can be described thus: IP1 accumulation assay, chimera HCA2(1–129)/HCA3(130-) with N86Y and W91S. The assay is classed as cell-based. Particulars: HCA2(1–129)/HCA3(130-) with N86Y and W91S (Figure 3d).

Where two headings read alike, the source gives them in different places.

T6 sequence (Q9BXC0 whole entry R99A): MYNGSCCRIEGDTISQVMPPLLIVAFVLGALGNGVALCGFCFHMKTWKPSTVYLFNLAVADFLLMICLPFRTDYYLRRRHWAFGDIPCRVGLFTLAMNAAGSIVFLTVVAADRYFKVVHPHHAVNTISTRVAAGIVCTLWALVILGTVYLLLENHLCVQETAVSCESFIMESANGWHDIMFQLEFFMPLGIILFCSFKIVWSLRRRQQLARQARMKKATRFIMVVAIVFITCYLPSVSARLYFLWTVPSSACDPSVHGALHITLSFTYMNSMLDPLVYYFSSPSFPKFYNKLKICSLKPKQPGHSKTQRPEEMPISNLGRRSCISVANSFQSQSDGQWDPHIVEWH
T1 sequence (Q9BXC0 whole entry): as the sequence (Q9BXC0 whole entry R99A) above, with A99R counted along it
T2 sequence (Q9BXC0 whole entry R240A): as the sequence (Q9BXC0 whole entry R99A) above, with A99R, R240A counted along it
T10 sequence (Q8TDS4 with tags, fused parts or gaps with the stated changes): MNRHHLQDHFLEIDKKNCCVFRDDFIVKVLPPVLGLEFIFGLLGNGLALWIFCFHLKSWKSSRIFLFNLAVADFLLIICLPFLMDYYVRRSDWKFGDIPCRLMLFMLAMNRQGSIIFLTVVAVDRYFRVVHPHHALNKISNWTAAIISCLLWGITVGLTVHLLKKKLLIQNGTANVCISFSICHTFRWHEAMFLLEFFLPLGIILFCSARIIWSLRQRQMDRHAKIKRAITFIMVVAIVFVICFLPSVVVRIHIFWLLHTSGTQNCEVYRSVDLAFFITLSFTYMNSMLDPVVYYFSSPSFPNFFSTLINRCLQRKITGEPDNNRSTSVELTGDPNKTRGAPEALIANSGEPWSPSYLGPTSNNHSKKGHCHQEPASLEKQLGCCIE
T3 sequence (Q9BXC0 whole entry E166I): as the sequence (Q9BXC0 whole entry R99A) above, with A99R, E166I counted along it
T4 sequence (Q9BXC0 whole entry E166A): as the sequence (Q9BXC0 whole entry R99A) above, with A99R, E166A counted along it
T8 sequence (P49019 with tags, fused parts or gaps with the stated changes): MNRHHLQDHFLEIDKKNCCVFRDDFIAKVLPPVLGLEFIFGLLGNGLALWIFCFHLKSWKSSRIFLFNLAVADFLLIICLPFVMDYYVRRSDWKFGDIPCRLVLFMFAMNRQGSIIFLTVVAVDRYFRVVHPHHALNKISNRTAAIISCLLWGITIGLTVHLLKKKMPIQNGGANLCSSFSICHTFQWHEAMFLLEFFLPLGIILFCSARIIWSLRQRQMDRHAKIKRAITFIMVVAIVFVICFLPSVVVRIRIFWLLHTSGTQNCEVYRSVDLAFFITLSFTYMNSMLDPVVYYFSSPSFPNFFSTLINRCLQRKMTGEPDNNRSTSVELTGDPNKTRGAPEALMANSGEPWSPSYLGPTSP
T5 sequence (Q9BXC0 whole entry H261F): as the sequence (Q9BXC0 whole entry R99A) above, with A99R, H261F counted along it
T7 sequence (Q8TDS4 with tags, fused parts or gaps with the stated changes): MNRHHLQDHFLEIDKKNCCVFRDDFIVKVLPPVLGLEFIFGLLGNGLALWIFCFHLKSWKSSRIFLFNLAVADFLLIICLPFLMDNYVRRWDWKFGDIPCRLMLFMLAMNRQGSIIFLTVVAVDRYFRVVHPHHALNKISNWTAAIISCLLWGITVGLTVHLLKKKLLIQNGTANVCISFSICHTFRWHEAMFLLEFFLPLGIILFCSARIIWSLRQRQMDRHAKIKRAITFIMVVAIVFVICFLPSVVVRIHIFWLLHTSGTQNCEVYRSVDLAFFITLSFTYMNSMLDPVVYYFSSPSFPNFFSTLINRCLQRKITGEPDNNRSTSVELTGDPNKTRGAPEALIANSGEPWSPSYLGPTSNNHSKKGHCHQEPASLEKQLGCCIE
T9 sequence (Q8TDS4 whole entry V27A/L83V/N86Y/W91S/M103V/L107F/S178I): as the sequence (P49019 with tags, fused parts or gaps with the stated changes) above, with S178I counted along it

Consider 3-hydroxybutyric acid [3-HBA], for which the EC50 in assay [1] (HCA1) was roughly 184 µM.

`O=C(O)c1cc(O)cc(O)c1` [3,5-DHBA, 3,5-dihydroxybenzoic acid] gave a negative logarithm of the EC50 (pEC50) in [2] of 3.7 ± 0.1. Besides, the “reduction of activation efficacy” value in assay [3] is recorded as “around 50%”. For the same compound, the “activation efficacy compared with the wild type” value in assay [4] was “halving of the activation efficacy”. Besides, the receptor activation entry in assay [5] is recorded as “inactivity”. Moreover, the “efficacy compared with H261A” value in assay [6] is “marked decrease of efficacy”. In [7], the potency at mutant entry is listed as “complete loss of potency”.

In the case of `CCCCCC(O)CC(=O)O` (stereo not drawn) [3-HO, 3-hydroxy-octanoic acid], the activation of chimera entry in [8] is reported as “failed to activate”; in assay [9], “capable of activating”; in assay [10], “highest potency”; in [11] it was “did not facilitate activation”.

Consider `CCOc1cc(Cl)c(C(=O)NC(=O)Nc2nc3ccc(CN4CCN(C)CC4)cc3s2)cc1N1CCOCC1` [AZ2, 2-chloro-4-ethoxy-N-[[6-[(4-methylpiperazin-1-yl)methyl]-1,3-benzothiazol-2-yl]carbamoyl]-5-morpholino-benzamide], for which the EC50 in [1] (HCA1) is 0.07 to 0.18 µM.

For `CC(O)C(=O)O` (stereo not drawn) [lactate], the pEC50 in [2] is listed as 3.2 ± 0.3. Besides, in assay [7], the potency at mutant result is given as “complete loss of potency”. Further, the half-maximal effective concentration (EC50) in assay [1] (HCA1, endogenous agonist) is 1000 to 5000 µM.
